Data set [1] relates to Staphylococcus aureus (SAUR 9213). As to the kind of experiment: MIC by standard agar dilution method. The class given is cell-based. As to conditions: Mueller Hinton agar, incubated overnight at 35° C., read-out: MIC. An excerpt:
The antibacterial agents of this invention have useful activity against a variety of organisms. The in vitro activity of compounds of this invention can be assessed by standard testing procedures such as the determination of minimum inhibitory concentration (MIC) by agar dilution as described in “Approved Standard. Methods for Dilution Antimicrobial Susceptibility Tests for Bacteria That Grow Aerobically”, 3rd. ed., published 1993 by the National Committee for Clinical Laboratory Standards, Villanova, Pa., USA. The in vitro MICs of test compounds are determined by a standard agar dilution method. A stock drug solution of each analog is prepared in the preferred solvent, usually DMSO:H2O (1:3). Serial 2-fold dilutions of each sample are made using 1.0 ml aliquots of sterile distilled water. To each 1.0 ml aliquot of drug is added 9 ml of molten Mueller Hinton agar medium. The drug-supplemented agar is mixed, poured into 15×100 mm petri dishes, and allowed to solidify and dry prior to inoculation. Vials of each of the test organisms are maintained frozen in the vapor phase of a liquid nitrogen freezer. Test cultures are grown overnight at 35° C. on the medium appropriate for the organism. Colonies are harvested with a sterile swab, and cell suspensions are prepared in Trypticase Soy broth (TSB) to equal the turbidity of a 0.5 McFarland standard. A 1:20 dilution of each suspension is made in TSB. The plates containing the drug supplemented agar are inoculated with a 0.001 ml drop of the cell suspension using a Steers replicator, yielding approximately 10^4 to 10^5 cells per spot. The plates are incubated overnight at 35° C. Following incubation the Minimum Inhibitory Concentration (MIC μg/ml), the lowest concentration of drug that inhibits visible growth of the organism, is read and recorded.
In general terms: Agar dilution tests growth on a series of plates holding different concentrations.

Molecules are shown by their SMILES. In brackets after ≈: the same amount, converted by molar mass.

With `NC(=O)[C@H]1CN(c2ccc(N3CCOCC3)c(F)c2)C(=O)O1` [Example 1, (5R)-(−)-3-[3-Fluoro-4-(4-morpholinyl)phenyl]-2-oxo-5-oxazolidinecarboxamide], the melting point was 185 to 187 °C (dec.). For the same compound, the minimal inhibitory concentration (MIC) in data set [1] was 4 µg/mL (≈ 12.9 µM).

As for `CNC(=O)[C@H]1CN(c2ccc(N3CCOCC3)c(F)c2)C(=O)O1` [Example 2, (5R)-(−)-3-[3-Fluoro-4-(4-morpholinyl)phenyl]-N-methyl-2-oxo-5-oxazolidinecarboxamide], the melting point is 182 to 183 °C (dec.). The minimal inhibitory concentration (MIC) in data set [1] was determined as 8 µg/mL (≈ 24.7 µM).

Consider `C=CCNC(=O)[C@H]1CN(c2ccc(N3CCOCC3)c(F)c2)C(=O)O1` [Example 3, (5R)-(−)-3-[3-Fluoro-4-(4-morpholinyl)phenyl]-N-allyl-2-oxo-5-oxazolidinecarboxamide], for which the melting point was 167 to 169 °C. In data set [1], the MIC is 8 µg/mL (≈ 22.9 µM).

Regarding `CCCNC(=O)[C@H]1CN(c2ccc(N3CCOCC3)c(F)c2)C(=O)O1` [Example 4, (5R)-(−)-3-[3-Fluoro-4-(4-morpholinyl)phenyl]-N-propyl-2-oxo-5-oxazolidinecarboxamide], the melting point is 165 to 167 °C. The minimum inhibitory concentration (MIC) in data set [1] is 16 µg/mL (≈ 45.5 µM).

As to `CONC(=O)[C@H]1CN(c2ccc(N3CCOCC3)c(F)c2)C(=O)O1` [Example 5, (5R)-(−)-3-[3-Fluoro-4-(4-morpholinyl)phenyl]-N-methoxy-2-oxo-5-oxazolidinecarboxamide], the melting point is 206 to 208 °C (dec.). Also, the MIC in data set [1] turned out to be 16 µg/mL (≈ 47.2 µM).

In the case of `O=C(NO)[C@H]1CN(c2ccc(N3CCOCC3)c(F)c2)C(=O)O1` [Example 6, (5R)-(−)-3-[3-Fluoro-4-(4-morpholinyl)phenyl]-N-hydroxy-2-oxo-5-oxazolidinecarboxamide], the melting point was 141 to 143 °C. Besides, in data set [1], the MIC is 16 µg/mL (≈ 49.2 µM).

As to `NC(=O)[C@H]1CN(c2ccc(-c3cccnc3)c(F)c2)C(=O)O1` [Example 7, (5R)-(−)-3-[4-(3-Pyridyl)-3-fluorophenyl]-2-oxo-5-oxazolidinecarboxamide], the melting point is 240 to 242 °C (dec.). For the same compound, the MIC in data set [1] came out at 2 µg/mL (≈ 6.64 µM).

As to `NC(=O)[C@H]1CN(c2ccc(-c3ccncc3)c(F)c2)C(=O)O1` [Example 8, (5R)-(−)-3-[4-(4-Pyridyl)-3-fluorophenyl]-2-oxo-5-oxazolidinecarboxamide], the melting point was 256 to 259 °C (dec.). In data set [1], the MIC is 1 µg/mL (≈ 3.32 µM).

Turning to `NC(=O)[C@H]1CN(c2ccc(C3=CCOCC3)c(F)c2)C(=O)O1` [Example 9, (5R)-(−)-3-[4-(3,6-Dihydro-2H-pyran-4-yl)-3-fluorophenyl]-2-oxo-5-oxazolidinecarboxamide], the melting point was in the range of 164 to 169 °C. Besides, the minimum inhibitory concentration (MIC) in data set [1] was 4 µg/mL (≈ 13.1 µM).

Regarding `NC(=O)[C@H]1CN(c2ccc(C3CCS(=O)(=O)CC3)c(F)c2)C(=O)O1` [Example 28, (5R)-3-[4-(Tetrahydro-2H-thiopyran-4-yl)-3-fluorophenyl]-2-oxo-5-oxazolidinecarboxamide S,S-dioxide], the melting point is 231 to 234 °C (dec.).

Regarding `CNC(=O)[C@H]1CN(c2cc(F)c3c(c2)oc(=O)n3C)C(=O)O1` [Example 89, (5R)-3-(4-Fluoro-3-methyl-2-oxo-2,3-dihydro-6-benzoxazolyl)-N-methyl-2-oxo-5-oxazolidinecarboxamide], the MIC in data set [1] turned out to be 16 µg/mL (≈ 51.7 µM).

In the case of `CCn1c(=O)oc2cc(N3C[C@H](C(=O)NC)OC3=O)cc(F)c21` [Example 90, (5R)-3-(3-Ethyl-4-fluoro-2-oxo-2,3-dihydro-6-benzoxazolyl)-N-methyl-2-oxo-5-oxazolidinecarboxamide], the MIC in data set [1] was 4 µg/mL (≈ 12.4 µM).

`CNC(=O)[C@H]1CN(c2cc(F)c3c(c2)oc(=O)n3C(C)C)C(=O)O1` [Example 91, (5R)-3-(4-Fluoro-3-isopropyl-2-oxo-2,3-dihydro-6-benzoxazolyl)-N-methyl-2-oxo-5-oxazolidinecarboxamide]: the MIC in data set [1] worked out at 4 µg/mL (≈ 11.9 µM).

What is called melting point is the temperature, or range, at which the solid turns liquid. As usually defined, the MIC is the least concentration at which growth counts as inhibited.

The values above are taken from patent US7645781B2, “N-aryl-2-oxazolidinone-5-carboxamides and their derivatives” (Pfizer Inc, priority 2002, dated 2010).
